EC50 data for 31 compounds are collected here from patent US10329289B2, “6,7-dihydro-5H-pyrrolo[3,4-B]pyridin-5-one allosteric modulators of the M4 muscarinic acetylcholine receptor” (Merck Sharp & Dohme Corp., priority 2015, dated 2019).

In this test the target is T1, human M4 muscarinic acetylcholine receptor (Homo sapiens, UniProt P08173).
T1 construct: expressed in transfected cells; host or cells: CHO-K1
T1 sequence (P08173 1-479): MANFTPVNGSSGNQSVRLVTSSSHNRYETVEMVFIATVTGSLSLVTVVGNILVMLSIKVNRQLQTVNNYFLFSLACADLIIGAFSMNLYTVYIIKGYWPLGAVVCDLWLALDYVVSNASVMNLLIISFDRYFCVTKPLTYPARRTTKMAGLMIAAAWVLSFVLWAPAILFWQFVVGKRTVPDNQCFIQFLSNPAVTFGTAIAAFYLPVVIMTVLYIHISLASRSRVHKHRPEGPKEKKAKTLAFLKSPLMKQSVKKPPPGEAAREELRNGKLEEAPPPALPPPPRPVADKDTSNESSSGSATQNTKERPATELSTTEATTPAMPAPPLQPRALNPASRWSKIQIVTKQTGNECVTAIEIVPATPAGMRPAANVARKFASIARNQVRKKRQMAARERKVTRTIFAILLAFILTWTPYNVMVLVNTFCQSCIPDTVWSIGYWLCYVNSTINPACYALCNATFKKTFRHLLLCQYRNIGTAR
The test is described as follows: human FLIPR-based M4 PAM assay (Ca2+ mobilization, CHO-K1 cells with human M4 receptor and Gαqi5). Conditions: acetylcholine at 20% of maximum response, read-out: M4 PAM IP. It is filed as cell-based. The gist of the method: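 CHO-K1 cells stably expressing human M4 and chimeric Gαqi5 were dye-loaded ~1 h at 37 °C and read for Ca2+ fluorescence. Compound followed by acetylcholine at an EC20 (sometimes an EC70 third addition); inflection point from a 4-parameter logistic fit.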
Background: A change in cytosolic calcium serves as a functional read-out for many receptors and channels.
Take `Cc1c(N2CCC(OC[C@@]3(C)CC3(F)F)CC2)nc2c(c1C)C(=O)NC2` (single isomer, unassigned) [Example 329A]: the EC50 was 47 nM.
As to `Cc1cc2c(nc1N1CCC(Oc3ccc4c(c3)CC(O)C4)CC1)CNC2=O` (stereo not shown) [Example 324, 2-(4-((2-Hydroxy-2,3-dihydro-1H-inden-5-yl)oxy)piperidin-1-yl)-3-methyl-6,7-dihydro-5H-pyrrolo[3,4-b]pyridin-5-one], the EC50 was determined as 17 nM.
On to `Cc1cc2c(nc1N1CCC(Oc3cccc(C#N)c3)CC1)CN(CCN(C)C)C2=O` [Example 236, 3-((1-(6-(2-(dimethylamino)ethyl)-3-methyl-5-oxo-6,7-dihydro-5H-pyrrolo[3,4-b]pyridin-2-yl)piperidin-4-yl)oxy)benzonitrile], for which the EC50 was 317 nM.
The result for `CCc1cc2c(nc1N1CCC(Oc3ccc4c(c3)COCC4)CC1)CNC2=O` [Example 200, 3-ethyl-2-(4-(isochroman-7-yloxy)piperidin-1-yl)-6,7-dihydro-5H-pyrrolo[3,4-b]pyridin-5-one] reads 96 nM.
For `Cc1cc2c(nc1N1CCC(Oc3ccc4c(c3)CCO4)CC1)CNC2=O` [Example 109, 2-(4-((2,3-dihydrobenzofuran-5-yl)oxy)piperidin-1-yl)-3-methyl-6,7-dihydro-5H-pyrrolo[3,4-b]pyridin-5-one], the EC50 is 20 nM.
The figure for `Cc1cc2c(nc1N1CCC(Oc3cnn(C)c3)CC1)CNC2=O` [Example 206A, 3-methyl-2-(4-((1-methyl-1H-pyrazol-4-yl)oxy)piperidin-1-yl)-6,7-dihydro-5H-pyrrolo[3,4-b]pyridin-5-one] is 259 nM; for `CCc1cc2c(nc1N1CCC(Oc3ccc4c(c3)COC4)CC1)CN(CCO)C2=O` [Example 258, 2-(4-((1,3-dihydro-2-benzofuran-5-yl)oxy)piperidin-1-yl)-3-ethyl-6-(2-hydroxyethyl)-6,7-dihydro-5H-pyrrolo[3,4-b]pyridin-5-one] it is 126 nM; for “3-methyl-2-(4-(3,3,3- trifluoro-2- hydroxypropoxy)piperi- din-1-yl)-6,7-dihydro- 5H-pyrrolo[3,4- b]pyridin-5-one [Example 179]” it is 168 nM.
On to `CCc1cc2c(nc1N1CCC(Oc3ccc4c(c3)OCC4)CC1)CNC2=O` [Example 198A, 2-(4-((2,3-dihydrobenzofuran-6-yl)oxy)piperidin-1-yl)-3-ethyl-6,7-dihydro-5H-pyrrolo[3,4-b]pyridin-5-one], for which the EC50 is 110 nM.
With `COC(=O)c1c(C)c(N2CCC(Oc3ccc(OC)nc3)CC2)nc2c1C(=O)NC2` [Example 190, methyl 2-(4-((6-methoxypyridin-3-yl)oxy)piperidin-1-yl)-3-methyl-5-oxo-6,7-dihydro-5H-pyrrolo[3,4-b]pyridine-4-carboxylate], the EC50 is 5610 nM.
The result for `Cc1cc2c(nc1N1CCC(OCc3ccccc3)CC1)CNC2=O` [Example 63, 2-(4-(benzyloxy)piperidin-1-yl)-3-methyl-6,7-dihydro-5H-pyrrolo[3,4-b]pyridin-5-one] reads 145 nM; that for `Cc1cc2c(nc1N1CCC(Oc3cncc(F)c3)CC1)CNC2=O` [Example 103, 2-(4-((5-fluoropyridin-3-yl)oxy)piperidin-1-yl)-3-methyl-6,7-dihydro-5H-pyrrolo[3,4-b]pyridin-5-one], 138 nM.
The figure for `Cc1cc2c(nc1N1CCC(Oc3ccc4c(c3)CCNC4)CC1)CNC2=O` [Example 144, 3-Methyl-2-(4-((1,2,3,4-tetrahydroisoquinolin-6-yl)oxy)piperidin-1-yl)-6,7-dihydro-5H-pyrrolo[3,4-b]pyridin-5-one] is 316 nM; for `Cc1cc2c(nc1N1CCC(Oc3ccc4c(c3)OC[C@H]4CCO)CC1)CNC2=O` [Example 154, (S)-2-(4-((3-(2-hydroxyethyl)-2,3-dihydrobenzofuran-6-yl)oxy)piperidin-1-yl)-3-methyl-6,7-dihydro-5H-pyrrolo[3,4-b]pyridin-5-one] it is 128 nM.
Turning to `Cc1cc2c(nc1N1CCC(Oc3ccccc3)C(F)(F)C1)CNC2=O` (single isomer, unassigned) [Example 158B, trans-2-(3,3-Difluoro-4-phenoxypiperidin-1-yl)-3-methyl-6,7-dihydro-5H-pyrrolo[3,4-b]pyridin-5-one], the EC50 was found to be 17 nM.
`Cc1cc2c(nc1N1CCC(Oc3ccccc3)CC1)CN(C)C2=O` [Example 240, 3,6-dimethyl-2-(4-phenoxypiperidin-1-yl)-6,7-dihydro-5H-pyrrolo[3,4-b]pyridin-5-one]: the EC50 is 40 nM.
As to `Cc1cc2c(nc1N1CCC(Oc3ccc4c(c3)CCCN4C)CC1)CNC2=O` [Example 291, 3-methyl-2-(4-((1-methyl-1,2,3,4-tetrahydroquinolin-6-yl)oxy)piperidin-1-yl)-6,7-dihydro-5H-pyrrolo[3,4-b]pyridin-5-one], the EC50 turned out to be 204 nM.
As for `Cc1c(N2CCC(Oc3ccc4c(c3)CCOC4)CC2)nc2c(c1C)C(=O)N(CCO)C2` [Example 265F, 6-(2-hydroxyethyl)-2-(4-(isochroman-6-yloxy)piperidin-1-yl)-3,4-dimethyl-6,7-dihydro-5H-pyrrolo[3,4-b]pyridin-5-one], the EC50 turned out to be 46 nM.
As for `Cc1cc2c(nc1N1CCC(Oc3ccc4c(cnn4C)c3)CC1)CNC2=O` [Example 4, 3-methyl-2-(4-((1-methyl-1H-indazol-5-yl)oxy)piperidin-1-yl)-6,7-dihydro-5H-pyrrolo[3,4-b]pyridin-5-one], the EC50 came out at 49 nM.
The figure for `Cc1cncc(OC2CCN(c3nc4c(cc3C)C(=O)N(C)[C@@H]4CO)CC2)c1` [Example 343, (S)-7-(hydroxymethyl)-3,6-dimethyl-2-(4-((5-methylpyridin-3-yl)oxy)piperidin-1-yl)-6,7-dihydro-5H-pyrrolo[3,4-b]pyridin-5-one] is 55 nM; for `Cc1cc2c(nc1N1CCC(Oc3cnc4c(c3)COC4)CC1)[C@H](CO)N(C)C2=O` [Example 277A, (R)-2-(4-((5,7-dihydrofuro[3,4-b]pyridin-3-yl)oxy)piperidin-1-yl)-7-(hydroxymethyl)-3,6-dimethyl-6,7-dihydro-5H-pyrrolo[3,4-b]pyridin-5-one] it is 30000 nM.
For the compound `Cc1c(N2CCC(Oc3ccc4c(c3)COC4)CC2)nc2c(c1CO)C(=O)NC2` [Example 303, 2-(4-((1,3-dihydro-2-benzofuran-5-yl)oxy)piperidin-1-yl)-4-(hydroxymethyl)-3-methyl-6,7-dihydro-5H-pyrrolo[3,4-b]pyridin-5-one], the EC50 came out at 302 nM.
The result for `Cc1cc2c(nc1N1CCC(Oc3ccc4c(c3)OCC4)CC1)[C@H](CO)N(C)C2=O` [Example 356, (R)-2-(4-((2,3-dihydrobenzofuran-6-yl)oxy)piperidin-1-yl)-7-(hydroxymethyl)-3,6-dimethyl-6,7-dihydro-5H-pyrrolo[3,4-b]pyridin-5-one] reads 788 nM; that for `Cc1c(N2CCC(OCC3CCC3)CC2)nc2c(c1C)C(=O)N(CCO)C2` [Example 267B, 2-(4-(cyclobutylmethoxy)piperidin-1-yl)-6-(2-hydroxyethyl)-3,4-dimethyl-6,7-dihydro-5H-pyrrolo[3,4-b]pyridin-5-one], 80 nM; that for `CCC1c2nc(N3CCC(Oc4ccc(OC)nc4)CC3)c(C)cc2C(=O)N1CC` (stereo not shown) [Example 233, 6,7-Diethyl-2-(4-((6-methoxypyridin-3-yl)oxy)piperidin-1-yl)-3-methyl-6,7-dihydro-5H-pyrrolo[3,4-b]pyridin-5-one], 394 nM.
Turning to `CCc1cc2c(nc1N1CC[C@@H](Oc3cnc4c(c3)COC4)[C@H](F)C1)CNC2=O` [Example 213A, 2-((3R,4R)-4-((5,7-dihydrofuro[3,4-b]pyridin-3-yl)oxy)-3-fluoropiperidin-1-yl)-3-ethyl-6,7-dihydro-5H-pyrrolo[3,4-b]pyridin-5-one], the EC50 was 126 nM.
The result for `Cc1cc2c(nc1N1CC[C@@H](Oc3ccc4c(cnn4C)c3)[C@@H](F)C1)CN(CCO)C2=O` [Example 267E, 2-((3S,4R)-3-fluoro-4-((1-methyl-1H-indazol-5-yl)oxy)piperidin-1-yl)-6-(2-hydroxyethyl)-3-methyl-6,7-dihydro-5H-pyrrolo[3,4-b]pyridin-5-one] reads 69 nM.
Regarding `Cc1cc2c(nc1N1CCC(Oc3ccc4c(c3)OCC4)CC1)CNC2=O` [Example 198, 2-(4-((2,3-dihydrobenzofuran-6-yl)oxy)piperidin-1-yl)-3-methyl-6,7-dihydro-5H-pyrrolo[3,4-b]pyridin-5-one], the EC50 is 18 nM.
For `Cc1cc2c(nc1N1CCC(Oc3cccc(C#N)c3)CC1)CN(C(C)C)C2=O` [Example 246, 3-((1-(6-isopropyl-3-methyl-5-oxo-6,7-dihydro-5H-pyrrolo[3,4-b]pyridin-2-yl)piperidin-4-yl)oxy)benzonitrile], the EC50 turned out to be 125 nM.
The figure for `Cc1cc2c(nc1N1CCC(Oc3cnn(-c4ccccc4)c3)CC1)CNC2=O` [Example 170A, 3-methyl-2-(4-((1-phenyl-1H-pyrazol-4-yl)oxy)piperidin-1-yl)-6,7-dihydro-5H-pyrrolo[3,4-b]pyridin-5-one] is 129 nM.
For the compound `COc1ccc(OC2CCN(c3nc4c(cc3C)C(=O)NC4CO)CC2)cn1` (stereo not shown) [Example 270, 7-(Hydroxymethyl)-2-(4-((6-methoxypyridin-3-yl)oxy)piperidin-1-yl)-3-methyl-6,7-dihydro-5H-pyrrolo[3,4-b]pyridin-5-one], the EC50 came out at 48 nM.
